Assays:
Experiment in all cases: relative viability (nuclei count vs DMSO), 5 days (fraction); higher = more cells survive
201T = system: 201T
Method in brief: (§1)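 Lung cancer cell lines in 1536-well plates got either a single drug or a fixed anchor-drug dose together with five library-drug doses (not always all listed) in √10 steps, by pin tool, on the day after seeding. Nuclei were counted after 5 days, and relative viability is the treated-to-vehicle ratio of nuclei counts. Values are medians of duplicate plates.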

COR-L23 = system: COR-L23
Method in brief: as §1

EPLC-272H = system: EPLC-272H
Method in brief: as §1

H3255 = system: H3255
Method in brief: as §1

HCC-44 = system: HCC-44
Method in brief: as §1

LOU-NH91 = system: LOU-NH91
Method in brief: as §1

NCI-H1650 = system: NCI-H1650
Method in brief: as §1

NCI-H1734 = system: NCI-H1734
Method in brief: as §1

NCI-H1793 = system: NCI-H1793
Method in brief: as §1

NCI-H1993 = system: NCI-H1993
Method in brief: as §1

NCI-H2023 = system: NCI-H2023
Method in brief: as §1

NCI-H2085 = system: NCI-H2085
Method in brief: as §1

NCI-H2170 = system: NCI-H2170
Method in brief: as §1

NCI-H2347 = system: NCI-H2347
Method in brief: as §1

NCI-H2405 = system: NCI-H2405
Method in brief: as §1

NCI-H3122 = system: NCI-H3122
Method in brief: as §1

NCI-H441 = system: NCI-H441
Method in brief: as §1

NCI-H520 = system: NCI-H520
Method in brief: as §1

NCI-H647 = system: NCI-H647
Method in brief: as §1

PC-14 = system: PC-14
Method in brief: as §1

RERF-LC-KJ = system: RERF-LC-KJ
Method in brief: as §1

SW 900 = system: SW 900
Method in brief: as §1

Work on O=C(O)c1ccc(-c2c[nH]c3ncc(-c4ccccc4)cc23)cc1C1CCCC1 + CC(=O)Nc1cccc(-n2c(=O)n(C3CC3)c(=O)c3c(Nc4ccc(I)cc4F)n(C)c(=O)c(C)c32)c1 [Trametinib] (partner 0.02 µM) yielded a relative viability (201T; first compound 0.04 µM) of 0.703, a relative viability (201T; first compound 0.1265 µM) of 0.673 and a relative viability (201T; first compound 0.4 µM) of 0.741. It also gave a relative viability (201T; first compound 1.265 µM) of 0.738, a relative viability (COR-L23; first compound 0.04 µM) of 0.584 and a relative viability (COR-L23; first compound 0.1265 µM) of 0.608. It also gave a relative viability (COR-L23; first compound 0.4 µM) of 0.627, a relative viability (COR-L23; first compound 1.265 µM) of 0.507 and a relative viability (EPLC-272H; first compound 0.04 µM) of 0.307. The relative viability (EPLC-272H; first compound 0.1265 µM) was 0.27, the relative viability (EPLC-272H; first compound 0.4 µM) was 0.283 and the relative viability (EPLC-272H; first compound 1.265 µM) was 0.276. The relative viability (H3255; first compound 0.04 µM) was 0.587, the relative viability (H3255; first compound 0.1265 µM) was 0.689 and the relative viability (H3255; first compound 0.4 µM) was 0.584. For the same compound, the relative viability (H3255; first compound 1.265 µM) was 0.625, the relative viability (HCC-44; first compound 0.04 µM) was 1 and the relative viability (HCC-44; first compound 0.1265 µM) was 1.02. For the same compound, the relative viability (HCC-44; first compound 0.4 µM) was 0.908, the relative viability (HCC-44; first compound 1.265 µM) was 1.01 and the relative viability (LOU-NH91; first compound 0.04 µM) was 0.774. It also gave a relative viability (LOU-NH91; first compound 0.1265 µM) of 0.848, a relative viability (LOU-NH91; first compound 0.4 µM) of 0.773 and a relative viability (LOU-NH91; first compound 1.265 µM) of 0.681. The relative viability (NCI-H1650; first compound 0.04 µM) was 0.54, the relative viability (NCI-H1650; first compound 0.1265 µM) was 0.684 and the relative viability (NCI-H1650; first compound 0.4 µM) was 0.758. The relative viability (NCI-H1650; first compound 1.265 µM) was 0.49, the relative viability (NCI-H1734; first compound 0.04 µM) was 0.618 and the relative viability (NCI-H1734; first compound 0.1265 µM) was 0.706. For the same compound, the relative viability (NCI-H1734; first compound 0.4 µM) was 0.614, the relative viability (NCI-H1734; first compound 1.265 µM) was 0.585 and the relative viability (NCI-H1793; first compound 0.04 µM) was 0.407. For the same compound, the relative viability (NCI-H1793; first compound 0.1265 µM) was 0.51, the relative viability (NCI-H1793; first compound 0.4 µM) was 0.497 and the relative viability (NCI-H1793; first compound 1.265 µM) was 0.34. It also gave a relative viability (NCI-H1993; first compound 0.04 µM) of 0.473, a relative viability (NCI-H1993; first compound 0.1265 µM) of 0.484 and a relative viability (NCI-H1993; first compound 0.4 µM) of 0.42. For the same compound, the relative viability (NCI-H1993; first compound 1.265 µM) was 0.575, the relative viability (NCI-H2023; first compound 0.04 µM) was 0.525 and the relative viability (NCI-H2023; first compound 0.1265 µM) was 0.55. The relative viability (NCI-H2023; first compound 0.4 µM) was 0.618, the relative viability (NCI-H2023; first compound 1.265 µM) was 0.413 and the relative viability (NCI-H2085; first compound 0.04 µM) was 0.508. The relative viability (NCI-H2085; first compound 0.1265 µM) was 0.488, the relative viability (NCI-H2085; first compound 0.4 µM) was 0.499 and the relative viability (NCI-H2085; first compound 1.265 µM) was 0.384. For the same compound, the relative viability (NCI-H2170; first compound 0.04 µM) was 0.899, the relative viability (NCI-H2170; first compound 0.1265 µM) was 0.925 and the relative viability (NCI-H2170; first compound 0.4 µM) was 0.887. It also gave a relative viability (NCI-H2170; first compound 1.265 µM) of 0.79, a relative viability (NCI-H2347; first compound 0.04 µM) of 0.267 and a relative viability (NCI-H2347; first compound 0.1265 µM) of 0.286. For the same compound, the relative viability (NCI-H2347; first compound 0.4 µM) was 0.311, the relative viability (NCI-H2347; first compound 1.265 µM) was 0.26 and the relative viability (NCI-H2405; first compound 0.04 µM) was 0.64. For the same compound, the relative viability (NCI-H2405; first compound 0.1265 µM) was 0.651, the relative viability (NCI-H2405; first compound 0.4 µM) was 0.627 and the relative viability (NCI-H2405; first compound 1.265 µM) was 0.587. For the same compound, the relative viability (NCI-H3122; first compound 0.04 µM) was 0.196, the relative viability (NCI-H3122; first compound 0.1265 µM) was 0.24 and the relative viability (NCI-H3122; first compound 0.4 µM) was 0.253. For the same compound, the relative viability (NCI-H3122; first compound 1.265 µM) was 0.277, the relative viability (NCI-H441; first compound 0.04 µM) was 0.48 and the relative viability (NCI-H441; first compound 0.1265 µM) was 0.494. The relative viability (NCI-H441; first compound 0.4 µM) was 0.393, the relative viability (NCI-H441; first compound 1.265 µM) was 0.464 and the relative viability (NCI-H520; first compound 0.04 µM) was 0.673. The relative viability (NCI-H520; first compound 0.1265 µM) was 0.775, the relative viability (NCI-H520; first compound 0.4 µM) was 0.672 and the relative viability (NCI-H520; first compound 1.265 µM) was 0.437. The relative viability (NCI-H647; first compound 0.04 µM) was 0.432, the relative viability (NCI-H647; first compound 0.1265 µM) was 0.477 and the relative viability (NCI-H647; first compound 0.4 µM) was 0.478. For the same compound, the relative viability (NCI-H647; first compound 1.265 µM) was 0.389, the relative viability (PC-14; first compound 0.04 µM) was 0.714 and the relative viability (PC-14; first compound 0.1265 µM) was 0.75. The relative viability (PC-14; first compound 0.4 µM) was 0.703, the relative viability (PC-14; first compound 1.265 µM) was 0.688 and the relative viability (RERF-LC-KJ; first compound 0.04 µM) was 0.916. It also gave a relative viability (RERF-LC-KJ; first compound 0.1265 µM) of 0.908, a relative viability (RERF-LC-KJ; first compound 0.4 µM) of 0.814 and a relative viability (RERF-LC-KJ; first compound 1.265 µM) of 0.657. For the same compound, the relative viability (SW 900; first compound 0.04 µM) was 0.757, the relative viability (SW 900; first compound 0.1265 µM) was 0.711 and the relative viability (SW 900; first compound 0.4 µM) was 1.37. The relative viability (SW 900; first compound 1.265 µM) was 0.454.

Source: the supplement of paper PMC10307832
